Measurements taken from patent US7332608B2, “Anthranilamides and methods of their use” (SANOFI-AVENTIS Deutschland GmbH, priority 2001, dated 2008).
pIC50: −log10 of the molar value.

Target: T1, Human Kv1.5 channels (Homo sapiens, UniProt P22460)
T1 construct: expressed in transfected cells; host or cells: Xenopus laevis oocytes injected with in vitro synthesized Kv1.5-encoding RNA
Experiment: Kv1.5 currents in Xenopus oocytes, two-microelectrode voltage clamp
Type: cell-based
Conditions: human Kv1.5 expressed in Xenopus laevis oocytes; voltage jumps 500 ms to 0 mV and 40 mV; room temperature; Hill equation
Procedure: Human Kv1.5 channels were expressed in Xenopus oocytes. For this purpose, firstly ooytes were isolated from Xenopus laevis and were defolliculated. Kv1.5-encoding RNA which had been synthesized in vitro was then injected into these oocytes. After 1-7 days of Kv1.5 protein expression, the Kv1.5 currents were measured on the oocytes by the two-microelectrode voltage clamp technique. The Kv1.5 channels were for this purpose usually activated with voltage jumps lasting 500 ms to 0 mV and 40 mV. A solution of the following composition flowed through the bath: NaCl 96 mM, KCl 2 mM, CaCl2 1.8 mM, MgCl2 1 mM, HEPES 5 mM (titrated to pH 7.4 with NaOH). These experiments were carried out at room temperature. The following were employed for data acquisition and analysis: geneclamp amplifier (Axon Instruments, Foster City, USA) and MacLab D/A converter and software (ADInstruments, Castle Hill, Australia). The compounds of the invention were tested by adding them in various concentrations to the bath solution. The effects of the compounds were calculated as percentage inhibition of the Kv1.5 control current which was obtained when no compound was added to the solution. The data were then extrapolated using the Hill equation in order to determine the inhibitory concentrations IC50 for the respective compounds.

T1 sequence (P22460 whole entry): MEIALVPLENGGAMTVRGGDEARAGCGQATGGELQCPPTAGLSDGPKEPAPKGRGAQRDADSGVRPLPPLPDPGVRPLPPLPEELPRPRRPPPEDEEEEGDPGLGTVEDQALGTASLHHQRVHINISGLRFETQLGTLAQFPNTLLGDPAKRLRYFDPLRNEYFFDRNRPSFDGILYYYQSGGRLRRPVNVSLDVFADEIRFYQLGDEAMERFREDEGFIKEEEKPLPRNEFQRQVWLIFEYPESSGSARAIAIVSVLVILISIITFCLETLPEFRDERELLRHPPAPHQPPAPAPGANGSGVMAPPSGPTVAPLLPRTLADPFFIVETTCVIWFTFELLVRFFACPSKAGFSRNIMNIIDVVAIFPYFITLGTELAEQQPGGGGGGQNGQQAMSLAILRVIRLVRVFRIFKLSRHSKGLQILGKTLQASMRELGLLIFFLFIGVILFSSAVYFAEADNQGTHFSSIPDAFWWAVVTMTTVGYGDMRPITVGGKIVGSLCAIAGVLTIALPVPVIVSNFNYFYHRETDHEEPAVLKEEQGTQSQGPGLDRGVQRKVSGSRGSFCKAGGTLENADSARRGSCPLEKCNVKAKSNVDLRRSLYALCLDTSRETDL

Structure (SMILES) | pIC50
CCCCS(=O)(=O)N(CC)c1ccccc1C(=O)N[C@@H](CC)c1ccccc1 [Example 57] | 5.30
CCCCS(=O)(=O)Nc1ccccc1C(=O)N[C@@H](CC)c1ccccc1 [Example 58] | < 5.00
CC[C@H](NC(=O)c1ccccc1NS(=O)(=O)c1cccc(C)c1)c1ccccc1 [Example 59] | 5.77
CC[C@H](NC(=O)c1ccccc1NS(=O)(=O)c1ccc(C)cc1)c1ccccc1 [Example 60] | 6.15
CC[C@H](NC(=O)c1ccccc1NS(=O)(=O)c1ccc2ccccc2c1)c1ccccc1 [Example 61] | 5.25
CC[C@H](NC(=O)c1ccccc1NS(=O)(=O)c1cccc2ccccc12)c1ccccc1 [Example 62] | 5.46
CC[C@H](NC(=O)c1ccccc1NS(=O)(=O)c1cccc(OC)c1)c1ccccc1 [Example 63] | 5.77
CC[C@H](NC(=O)c1ccccc1NS(=O)(=O)c1ccc(OC)cc1)c1ccccc1 [Example 64] | 6.22
CC[C@H](NC(=O)c1ccccc1NS(=O)(=O)c1cccc2c(N(C)C)cccc12)c1ccccc1 [Example 65] | 5.32
CC[C@H](NC(=O)c1ccccc1NS(=O)(=O)c1ccc(C(F)(F)F)cc1)c1ccccc1 [Example 66] | 5.40
CC[C@H](NC(=O)c1ccccc1NS(=O)(=O)c1ccc(OC(F)(F)F)cc1)c1ccccc1 [Example 67] | 5.24
CC[C@H](NC(=O)c1ccccc1NS(=O)(=O)c1ccc(Cl)cc1)c1ccccc1 [Example 68] | 5.54
CC[C@H](NC(=O)c1ccccc1NS(=O)(=O)c1ccccc1)c1ccccc1 [Example 69] | 5.89
COc1cccc(S(=O)(=O)Nc2ccccc2C(=O)N(Cc2ccccc2)Cc2cccnc2)c1 [Example 70] | 5.42
CCCCS(=O)(=O)Nc1ccccc1C(=O)N(Cc1ccccc1)Cc1cccnc1 [Example 71] | 5.16
CCc1ccc(S(=O)(=O)Nc2ccccc2C(=O)N(Cc2ccccc2)Cc2cccnc2)cc1 [Example 72] | 5.30
CCCS(=O)(=O)Nc1ccccc1C(=O)N[C@@H](CC)c1ccccc1 [Example 73] | 5.51
CC[C@H](NC(=O)c1ccccc1NS(=O)(=O)CCC(C)C)c1ccccc1 [Example 74] | 5.77
Cc1cccc(S(=O)(=O)Nc2ccccc2C(=O)N(Cc2ccccc2)Cc2cccnc2)c1 [Example 75] | 5.54
CC[C@H](NC(=O)c1ccccc1NS(=O)(=O)c1ccc(C)cc1OC)c1ccccc1 [Example 76] | 5.33

Structure (SMILES) | pIC50
CCc1ccc(S(=O)(=O)Nc2ccccc2C(=O)N[C@@H](CC)c2ccccc2)cc1 [Example 77] | 5.59
Cc1ccc(S(=O)(=O)Nc2ccccc2C(=O)N(Cc2ccccc2)Cc2cccnc2)cc1 [Example 79] | 6.15
Cc1ccc(S(=O)(=O)Nc2ccc(F)cc2C(=O)N(Cc2ccccc2)Cc2nccn2C)cc1 [Example 81] | 6.40
COc1cccc(CN(CC2CC2)C(=O)c2ccccc2NS(=O)(=O)c2ccc(C)cc2)c1 [Example 82] | 5.49
Cc1ccc(S(=O)(=O)Nc2ccccc2C(=O)N(Cc2ccccc2)Cc2cccn2C)cc1 [Example 83] | 5.72
Cc1ccc(S(=O)(=O)Nc2ccccc2C(=O)N(Cc2ccccc2)Cc2nccs2)cc1 [Example 84] | 6.00
Cc1ccc(S(=O)(=O)Nc2ccccc2C(=O)N(Cc2ccn[nH]2)CC2CC2)cc1 [Example 85] | 5.28
Cc1ccc(S(=O)(=O)Nc2ccccc2C(=O)N(Cc2ccccc2)Cc2ccc[nH]2)cc1 [Example 86] | 5.74
Cc1ccc(S(=O)(=O)Nc2ccccc2C(=O)N(Cc2cnc3ccccc3c2)CC2CC2)cc1 [Example 87] | 5.22
CCc1nc(C)c(CN(Cc2ccccc2)C(=O)c2ccccc2NS(=O)(=O)c2ccc(C)cc2)[nH]1 [Example 88] | 5.41
Cc1ccc(S(=O)(=O)Nc2ccccc2C(=O)N(Cc2ccccc2)Cc2nn(C)cc2Cl)cc1 [Example 89] | 5.49
CC[C@H](NC(=O)c1cc(OC)ccc1NS(=O)(=O)c1ccc(C)cc1)c1ccccc1 [Example 90] | 6.30
CCC(NC(=O)c1cc(OC)ccc1NS(=O)(=O)c1ccc(C)cc1)c1ccc(F)cc1 (stereo not shown) [Example 91] | 6.10
CCCC(NC(=O)c1cc(OC)ccc1NS(=O)(=O)c1ccc(C)cc1)c1ccccc1 (stereo not shown) [Example 92] | 6.05
COc1ccc(NS(=O)(=O)c2ccc(C)cc2)c(C(=O)NC(c2ccccc2)C2CC2)c1 (stereo not shown) [Example 93] | 5.96
O=C(NC(c1ccccc1)C1CC1)c1ccccc1NS(=O)(=O)c1ccccc1 (stereo not shown) [Example 94] | 6.00
COc1ccc(NS(=O)(=O)c2ccc(C)cc2)c(C(=O)N[C@@H](C)C2CCCCC2)c1 [Example 95] | 6.15
COc1cccc([C@H](C)NC(=O)c2cc(OC)ccc2NS(=O)(=O)c2ccc(C)cc2)c1 [Example 96] | 6.00
COc1ccc([C@H](C)NC(=O)c2cc(OC)ccc2NS(=O)(=O)c2ccc(C)cc2)cc1 [Example 97] | 6.05
C[C@@H](c1ccccc1)N(C)C(=O)c1ccccc1NS(=O)(=O)c1ccccc1 [Example 98] | 5.70

Structure (SMILES) | pIC50
CC[C@@H](NC(=O)c1cc(OC)ccc1NS(=O)(=O)c1ccc(C)cc1)c1ccccc1 [Example 99] | 6.05
Cc1ccc(S(=O)(=O)Nc2ccc(F)cc2C(=O)N(Cc2ccccc2)CC2CCCO2)cc1 (stereo not shown) [Example 100] | 5.80
Cc1ccc(S(=O)(=O)Nc2ccc(F)cc2C(=O)N(Cc2ccccc2)Cc2cccc(C)n2)cc1 [Example 101] | 6.05
Cc1ccc(S(=O)(=O)Nc2ccc(F)cc2C(=O)N(Cc2ccccc2)Cc2ccn[nH]2)cc1 [Example 102] | 6.15
COc1ccc(NS(=O)(=O)c2ccc(C)cc2)c(C(=O)NC(C)(C)c2ccccc2)c1 [Example 103] | 5.85
COc1ccc(NS(=O)(=O)c2ccc(C)cc2)c(C(=O)NC(C)c2ccc(F)cc2)c1 (stereo not shown) [Example 104] | 6.00
C[C@H](c1ccccc1)N(C)C(=O)c1ccccc1NS(=O)(=O)c1ccccc1 [Example 105] | 5.59
CC[C@H](NC(=O)c1cc(F)ccc1NS(=O)(=O)c1ccc(Cl)cc1)c1ccccc1 [Example 106] | 5.42
Cc1ccc(S(=O)(=O)Nc2ccc(F)cc2C(=O)N(Cc2ccc(F)cc2)Cc2nccn2C)cc1 [Example 107] | 6.05
Cc1ccc(S(=O)(=O)Nc2ccc(F)cc2C(=O)N(Cc2ccc(F)cc2)Cc2ccn[nH]2)cc1 [Example 108] | 5.92
Cc1ccc(S(=O)(=O)Nc2ccccc2C(=O)N(Cc2ccc(F)cc2)Cc2nccn2C)cc1 [Example 109] | 5.96
Cc1ccc(S(=O)(=O)Nc2ccc(F)cc2C(=O)N(Cc2ccccc2)Cc2nccs2)cc1 [Example 110] | 6.00
Cc1ccc(S(=O)(=O)Nc2ccccc2C(=O)N(Cc2nn(C)cc2Cl)CC2CC2)cc1 [Example 111] | 5.77
Cc1ccc(S(=O)(=O)Nc2ccccc2C(=O)N(Cc2ccccc2)Cc2ccn[nH]2)cc1 [Example 112] | 6.30
Cc1ccc(S(=O)(=O)Nc2ccccc2C(=O)N(Cc2cccc(C)n2)CC2CC2)cc1 [Example 113] | 5.59
CCCCS(=O)(=O)Nc1ccc(C)cc1C(=O)N[C@H](CC)c1ccccc1 [Example 114] | 5.85
CC[C@H](NC(=O)c1cc(F)ccc1NS(=O)(=O)c1ccc(C)cc1)c1ccccc1 [Example 115] | 5.62
Cc1ccc(S(=O)(=O)Nc2ccccc2C(=O)N(Cc2ccccc2)CC2CCCO2)cc1 (stereo not shown) [Example 116] | 5.96
